Values quoted from earlier work, collected in US10092580B2, “Controlled-release otic structure modulating and innate immune system modulating compositions and methods for the treatment of otic disorders” (OTONOMY, INC., priority 2008, dated 2018).

Experiments:
[1] = administered by IV
V2-R = conditions: infusion into the scala tympani
[2] = minute concentrations (e.g., 0.05%)

In the case of `CCN(CC)CC(=O)Nc1c(C)cccc1C` [Lidocaine], the “sufferers in whom the noise associated with tinnitus is reduced or eliminated” value [1] is given as 60-80%.
In the case of `Cc1ccccc1C(=O)Nc1ccc(C(=O)N2CCCC(N(C)C)c3ccccc32)cc1` (stereo not drawn) [OPC-31260], the “Meniere's disease symptoms” value (V2-R) is given as “marked reduction”.
In the case of `[H]/N=C(\N/C(=N/[H])NCCCCCCNC(=N)NC(=N)Nc1ccc(Cl)cc1)Nc1ccc(Cl)cc1` [chlorhexidene], the ototoxicity [2] is listed as “highly ototoxic”.
